Results published in US6737383B1, “Herbicidal oxadiazolidines” (priority 1999, dated 2004).

What was measured:
rice = test: Test B flood test rice; assay type: in vivo, Oryza sativa
How it was run: (§1)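 Plants were grown to the 2-leaf stage before treatment with test chemical, then held in a greenhouse for twelve to sixteen days. Injury was visually rated against untreated controls on a 0–10 scale, where 0 is no effect and 10 is complete control.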

crabgrass = test: Test B pre/postemergence crabgrass; assay type: in vivo, Digitaria sanguinalis
How it was run: (§2)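 Herbicidal effect was estimated by eye on a ten-point control scale after plants spent twelve to sixteen days in a greenhouse following soil or foliar treatment. Foliar sprays targeted plants at one to four leaves; all doses were formulated in a non-phytotoxic solvent with surfactant.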

corn = test: Test B pre/postemergence corn; assay type: in vivo, Zea mays
How it was run: as §2

purple nutsedge = test: Test B pre/postemergence purple nutsedge; assay type: in vivo, Cyperus rotundus; conditions: Postemergence
How it was run: as §2

duck salad = test: Test B flood test duck salad; assay type: in vivo, Heteranthera limosa
How it was run: as §1

surinam grass = test: Test B pre/postemergence surinam grass; assay type: in vivo, Brachiaria decumbens
How it was run: as §2

sugar beet = test: Test B pre/postemergence sugar beet; assay type: in vivo, Beta vulgaris
How it was run: as §2

blackgrass = test: Test B pre/postemergence blackgrass; assay type: in vivo, Alopecurus myosuroides
How it was run: as §2

bedstraw = test: Test B pre/postemergence bedstraw; assay type: in vivo, Galium aparine
How it was run: as §2

cocklebur = test: Test B pre/postemergence cocklebur; assay type: in vivo, Xanthium strumarium
How it was run: as §2

smallflower flatsedge = test: Test B flood test smallflower flatsedge; assay type: in vivo, Cyperus difformis
How it was run: as §1

giant foxtail = test: Test B pre/postemergence giant foxtail; assay type: in vivo, Setaria faberii
How it was run: as §2

velvetleaf = test: Test B pre/postemergence velvetleaf; assay type: in vivo, Abutilon theophrasti
How it was run: as §2

rape = test: Test B pre/postemergence rape; assay type: in vivo, Brassica napus
How it was run: as §2

soybean = test: Test B pre/postemergence soybean; assay type: in vivo, Glycine max
How it was run: as §2

wheat = test: Test B pre/postemergence wheat; assay type: in vivo, Triticum aestivum
How it was run: as §2

bamyardgrass = test: Test B flood test barnyardgrass; assay type: in vivo, Echinochloa crus-galli
How it was run: as §1

[1] = Rate 62 g/ha, headed Pre-emergence (flood test species), scale 0 to 10 (0 no effect, 10 complete control)
[2] = Rate 125 g/ha, Pre-emergence, flood test species, scale 0 to 10 where 0 is no effect and 10 is complete control
[3] = Rate 250 g/ha, Pre-emergence, flood-test species, scale 0 to 10, 0 is no effect, 10 is complete control
[4] = Rate 500 g/ha, Pre-emergence, flood test species, scale 0 to 10 (0 no effect, 10 complete control)
[5] = Preemergence, Rate 62 g/ha, scale of 0 to 10 where 0 is no effect and 10 is complete control
[6] = Preemergence, Rate 250 g/ha, scale of 0 to 10 where 0 is no effect and 10 is complete control
[7] = Preemergence, Rate 500 g/ha, scale of 0 to 10 where 0 is no effect and 10 is complete control
[8] = Rate 62 g/ha, Postemergence, scale of 0 to 10 where 0 is no effect and 10 is complete control
[9] = Rate 125 g/ha, Postemergence, scale 0 to 10
[10] = Rate 125 g/ha, Preemergence, scale of 0 to 10 where 0 is no effect and 10 is complete control
[11] = Rate 500 g/ha, Postemergence, scale 0 to 10, 0 no effect, 10 complete control

Compound: Cc1ccccc1N(C(=O)n1oc(=O)n(-c2ccccc2C)c1=O)C(C)C [Compound 236]
- Rice plant response rating (rice; [1]): 0
- Rice plant response rating (rice; [2]): 0
- Rice plant response rating (rice; [3]): 0
- Rice plant response rating (rice; [4]): 0
- Crabgrass plant response rating (crabgrass; [5]): 2
- Crabgrass plant response rating (crabgrass; [6]): 5
- Plant response rating, Crabgrass (crabgrass; [7]): 5
- Crabgrass plant response rating (crabgrass; [8]): 0
- Crabgrass plant response rating (crabgrass; [9]): 0
- Crabgrass plant response rating (crabgrass; [10]): 3
- Plant response rating (0 to 10; 0 is no effect, 10 is complete control), Crabgrass (crabgrass; Rate 250 g/ha, Postemergence): 0
- Crabgrass plant response rating (crabgrass; [11]): 0
- Corn plant response rating (corn; [5]): 0
- Corn plant response rating (corn; [6]): 0
- Plant response rating, Corn (corn; [7]): 0
- Corn plant response rating (corn; [8]): 0
- Corn plant response rating (corn; [9]): 0
- Corn plant response rating (corn; [10]): 0
- Plant response rating (0 to 10; 0 is no effect, 10 is complete control), Corn (corn; Rate 250 g/ha, Postemergence): 0
- Corn plant response rating (corn; [11]): 0
- Nutsedge plant response rating (purple nutsedge; Rate 62 g/ha, scale of 0 to 10 where 0 is no effect and 10 is complete control): 0
- Nutsedge plant response rating (purple nutsedge; Rate 125 g/ha, scale 0 to 10): 0
- Plant response rating (0 to 10; 0 is no effect, 10 is complete control), Nutsedge (purple nutsedge; Rate 250 g/ha): 0
- Nutsedge plant response rating (purple nutsedge; Rate 500 g/ha, scale 0 to 10, 0 no effect, 10 complete control): 0
- Ducksalad plant response rating (duck salad; [1]): 0
- Ducksalad plant response rating (duck salad; [2]): 0
- Ducksalad plant response rating (duck salad; [3]): 0
- Ducksalad plant response rating (duck salad; [4]): 0
- B. signalgrass plant response rating (surinam grass; [5]): 0
- B. signalgrass plant response rating (surinam grass; Preemergence, Rate 250 g/ha, scale 0 to 10, 0 is no effect, 10 is complete control): 0
- Plant response rating, B. signalgrass (surinam grass; [7]): 3
- B. signalgrass plant response rating (surinam grass; [8]): 0
- B. signalgrass plant response rating (surinam grass; Rate 125 g/ha, Postemergence, scale 0 (no effect) to 10 (complete control)): 0
- B. signalgrass plant response rating (surinam grass; [10]): 0
- Plant response rating (0 to 10; 0 is no effect, 10 is complete control), B. signalgrass (surinam grass; Rate 250 g/ha, Postemergence): 0
- B. signalgrass plant response rating (surinam grass; [11]): 0
- Sugarbeets plant response rating (sugar beet; [5]): 0
- Sugarbeets plant response rating (sugar beet; [6]): 0
- Plant response rating, Sugarbeets (sugar beet; [7]): 0
- Sugarbeets plant response rating (sugar beet; [8]): 0
- Sugarbeets plant response rating (sugar beet; [9]): 0
- Sugarbeets plant response rating (sugar beet; [10]): 0
- Plant response rating (0 to 10; 0 is no effect, 10 is complete control), Sugarbeets (sugar beet; Rate 250 g/ha, Postemergence): 0
- Sugarbeets plant response rating (sugar beet; [11]): 0
- Blackgrass plant response rating (blackgrass; [5]): 0
- Blackgrass plant response rating (blackgrass; [6]): 5
- Plant response rating, Blackgrass (blackgrass; [7]): 5
- Blackgrass plant response rating (blackgrass; [8]): 0
- Blackgrass plant response rating (blackgrass; [9]): 0
- Blackgrass plant response rating (blackgrass; [10]): 2
- Plant response rating (0 to 10; 0 is no effect, 10 is complete control), Blackgrass (blackgrass; Rate 250 g/ha, Postemergence): 0
- Blackgrass plant response rating (blackgrass; [11]): 0
- Bedstraw plant response rating (bedstraw; [5]): 0
- Bedstraw plant response rating (bedstraw; [6]): 0
- Plant response rating, Bedstraw (bedstraw; [7]): 0
- Bedstraw plant response rating (bedstraw; [8]): 0
- Bedstraw plant response rating (bedstraw; [9]): 0
- Bedstraw plant response rating (bedstraw; [10]): 0
- Plant response rating (0 to 10; 0 is no effect, 10 is complete control), Bedstraw (bedstraw; Rate 250 g/ha, Postemergence): 0
- Bedstraw plant response rating (bedstraw; [11]): 4
- Cocklebur plant response rating (cocklebur; [5]): 0
- Cocklebur plant response rating (cocklebur; [6]): 0
- Plant response rating, Cocklebur (cocklebur; [7]): 0
- Cocklebur plant response rating (cocklebur; [8]): 0
- Cocklebur plant response rating (cocklebur; [9]): 0
- Cocklebur plant response rating (cocklebur; [10]): 0
- Plant response rating (0 to 10; 0 is no effect, 10 is complete control), Cocklebur (cocklebur; Rate 250 g/ha, Postemergence): 0
- Cocklebur plant response rating (cocklebur; [11]): 0
- S. Flatsedge plant response rating (smallflower flatsedge; [1]): 0
- S. Flatsedge plant response rating (smallflower flatsedge; [2]): 0
- S. Flatsedge plant response rating (smallflower flatsedge; [3]): 0
- S. Flatsedge plant response rating (smallflower flatsedge; [4]): 0
- Giant foxtail plant response rating (giant foxtail; [5]): 7
- Giant foxtail plant response rating (giant foxtail; [6]): 9
- Plant response rating, Giant foxtail (giant foxtail; [7]): 10
- Giant foxtail plant response rating (giant foxtail; [8]): 0
- Giant foxtail plant response rating (giant foxtail; [9]): 0
- Giant foxtail plant response rating (giant foxtail; [10]): 7
- Plant response rating (0 to 10; 0 is no effect, 10 is complete control), Giant foxtail (giant foxtail; Rate 250 g/ha, Postemergence): 0
- Giant foxtail plant response rating (giant foxtail; [11]): 0
- Velvetleaf plant response rating (velvetleaf; [5]): 0
- Velvetleaf plant response rating (velvetleaf; [6]): 0
- Plant response rating, Velvetleaf (velvetleaf; [7]): 0
- Velvetleaf plant response rating (velvetleaf; [8]): 0
- Velvetleaf plant response rating (velvetleaf; [9]): 0
- Velvetleaf plant response rating (velvetleaf; [10]): 0
- Plant response rating (0 to 10; 0 is no effect, 10 is complete control), Velvetleaf (velvetleaf; Rate 250 g/ha, Postemergence): 1
- Velvetleaf plant response rating (velvetleaf; [11]): 3
- Rape plant response rating (rape; [5]): 0
- Rape plant response rating (rape; [6]): 0
- Plant response rating, Rape (rape; [7]): 0
- Rape plant response rating (rape; [8]): 0
- Rape plant response rating (rape; [9]): 0
- Rape plant response rating (rape; [10]): 0
- Plant response rating (0 to 10; 0 is no effect, 10 is complete control), Rape (rape; Rate 250 g/ha, Postemergence): 0
- Rape plant response rating (rape; [11]): 0
- Soybean plant response rating (soybean; [5]): 0
- Soybean plant response rating (soybean; [6]): 0
- Plant response rating, Soybean (soybean; [7]): 0
- Soybean plant response rating (soybean; [8]): 1
- Soybean plant response rating (soybean; [9]): 1
- Soybean plant response rating (soybean; [10]): 0
- Plant response rating (0 to 10; 0 is no effect, 10 is complete control), Soybean (soybean; Rate 250 g/ha, Postemergence): 2
- Soybean plant response rating (soybean; [11]): 3
- Wheat plant response rating (wheat; [5]): 0
- Wheat plant response rating (wheat; [6]): 0
- Plant response rating, Wheat (wheat; [7]): 0
- Wheat plant response rating (wheat; [8]): 0
- Wheat plant response rating (wheat; [9]): 0
- Wheat plant response rating (wheat; [10]): 0
- Plant response rating (0 to 10; 0 is no effect, 10 is complete control), Wheat (wheat; Rate 250 g/ha, Postemergence): 0
- Wheat plant response rating (wheat; [11]): 0
- Barnyardgrass plant response rating (bamyardgrass; [1]): 0
- Barnyardgrass plant response rating (bamyardgrass; [2]): 0
- Barnyardgrass plant response rating (bamyardgrass; [3]): 0
- Barnyardgrass plant response rating (bamyardgrass; [4]): 0
